Consider 47 molecules from BindingDB's records for doi:10.1016/j.ejmech.2015.02.042 (University of Naples, 2015).

In test [1] the target is Prostaglandin E synthase (Homo sapiens) (UniProt O14684). The experiment in a line: Inhibition of mPGES1 in IL-1beta stimulated human A549 cell microsomal membranes assessed as reduction in PGE2 synthase activity after 15 mins using PGH2 substrate by RP-HPLC method.
The target is the same in test [2]. Briefly: Inhibition of human mPGES1.

Chain of Prostaglandin E synthase (Homo sapiens) (O14684 whole entry, looked up): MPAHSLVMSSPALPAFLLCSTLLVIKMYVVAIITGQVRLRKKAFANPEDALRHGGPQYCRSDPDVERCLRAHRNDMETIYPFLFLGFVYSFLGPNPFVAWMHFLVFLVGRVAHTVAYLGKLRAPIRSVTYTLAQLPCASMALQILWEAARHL

As for `CCCCCCCCCCCCCCCC1=C(O)C(=O)C=C(O)C1=O`, the IC50 – broadly, the midpoint of a concentration-inhibition curve – in test [1] came to 2.1 µM.

Take `CCCCCCCCC1=C(O)C(=O)C=C(OC)C1=O`: the half-maximal inhibitory concentration (IC50) in test [1] is greater than 10 µM.

As for `CCCCCCCCCCCCCC1=C(OC)C(=O)C=C(OC)C1=O`, the half-inhibitory concentration (IC50) in test [1] is 1.8 µM.

Take `CCCCCCCCCCCCCCC1=C(O)C(=O)C=C(O)C1=O`: the IC50 in test [1] came out at 1.6 µM.

Turning to `COC1=CC(=O)C(O)=C(C/C=C(\C)CC/C=C(\C)CCC=C(C)C)C1=O`, the half-maximal inhibitory concentration (IC50) in test [1] was greater than 10 µM.

As to `CCCCCCCCCCC1=C(OC)C(OC)=CC(=O)C1=O`, the IC50 in test [1] is greater than 10 µM.

Regarding `CCCCCCCCCCCCC1=C(O)C(=O)C=C(O)C1=O`, the IC50 in test [1] was 3.1 µM.

As to `COC1=CC(=O)C(=O)C(C/C=C(\C)CC/C=C(\C)CCC=C(C)C)=C1OC`, in test [1], the concentration for half-maximal inhibition (IC50) is greater than 10 µM.

As to `CCCCCCCCC1=C(OC)C(OC)=CC(=O)C1=O`, in test [1], the IC50 was greater than 10 µM.

In the case of `CCCCCCC1=C(OC)C(=O)C=C(OC)C1=O`, the IC50 in test [1] was greater than 10 µM.

On to `COC1=CC(=O)C(OC)=C(C/C=C(\C)CC/C=C(\C)CCC=C(C)C)C1=O`, for which the IC50 in test [1] was greater than 10 µM.

Turning to `CCCCCCCCCCCCCCCC1=C(OC)C(OC)=CC(=O)C1=O`, the 50% inhibitory concentration (IC50) in test [1] was greater than 10 µM.

With `CCCCCCCCCCCCCCCCC1=C(O)C(=O)C=C(O)C1=O`, the 50% inhibitory concentration (IC50) in test [1] is greater than 10 µM.

Take `CCCCCCCCCCCCCCCC1=C(O)C(=O)C=C(OC)C1=O`: the half-inhibitory concentration (IC50) in test [1] was 9.3 µM.

Turning to `CCCCCCCCCCC1=C(O)C(=O)C=C(OC)C1=O`, the concentration for half-maximal inhibition (IC50) in test [1] is greater than 10 µM.

`CCCCCCCCCCCCC1=C(OC)C(=O)C=C(OC)C1=O`: the half-maximal inhibitory concentration (IC50) in test [1] amounted to 4.7 µM.

Regarding `CCCCCCCCCCCCC1=C(OC)C(OC)=CC(=O)C1=O`, the IC50 in test [1] was greater than 10 µM.

For the molecule `CCCCCCCCCCC1=C(O)C(=O)C=C(O)C1=O`, in test [1], the half-maximal inhibitory concentration (IC50) was found to be 1 µM.

Take `CCCCCCC1=C(O)C(=O)C=C(OC)C1=O`: the 50% inhibitory concentration (IC50) in test [1] was greater than 10 µM.

With `CCCCCCCCCCCCCCC1=C(OC)C(=O)C=C(OC)C1=O`, the IC50 in test [1] came to 4.4 µM.

As to `CCCCCCCCCCCCCCC1=C(OC)C(OC)=CC(=O)C1=O`, the IC50 in test [1] is greater than 10 µM.

For the molecule `CCCCCCCCC1=C(OC)C(=O)C=C(OC)C1=O`, in test [1], the 50% inhibitory concentration (IC50) was greater than 10 µM.

For `CCCCCCCCCCCC1=C(OC)C(OC)=CC(=O)C1=O`, the IC50 in test [1] was greater than 10 µM.

Consider `CCCCC1=C(OC)C(=O)C=C(OC)C1=O`, for which, in test [1], the half-maximal inhibitory concentration (IC50) is greater than 10 µM.

As for `CCCCCCCCCCCCC1=C(O)C(=O)C=C(OC)C1=O`, the half-inhibitory concentration (IC50) in test [1] amounted to 5.8 µM.

In the case of `CCCCCCCCCCCCCC1=C(O)C(=O)C=C(O)C1=O` [CHEBI:8779], the IC50 in test [1] came out at 0.9 µM.

Turning to `CCCCCCCCCCCCCC1=C(OC)C(OC)=CC(=O)C1=O`, in test [1], the concentration for half-maximal inhibition (IC50) was greater than 10 µM.

Consider `CCCCCCCCCCCC1=C(OC)C(=O)C=C(OC)C1=O`, for which the half-maximal inhibitory concentration (IC50) in test [1] was greater than 10 µM.

Regarding `CCCCC1=C(OC)C(OC)=CC(=O)C1=O`, the IC50 in test [1] was greater than 10 µM.

On to `CCCCCCC1=C(O)C(=O)C=C(O)C1=O`, for which, in test [1], the IC50 is greater than 10 µM.

Regarding `COC1=CC(=O)C(=O)C(C/C=C(\C)CCC=C(C)C)=C1OC`, the IC50 in test [1] was greater than 10 µM.

Consider `CCCCCCCCCCC1=C(OC)C(=O)C=C(OC)C1=O`, for which the IC50 in test [1] is greater than 10 µM.

On to `COC1=CC(=O)C(O)=C(C/C=C(\C)CCC=C(C)C)C1=O`, for which, in test [1], the half-maximal inhibitory concentration (IC50) is greater than 10 µM.

Consider `CCCCCCCCCCCC1=C(O)C(=O)C=C(OC)C1=O` [CHEBI:65842], for which the IC50 in test [1] is 9.1 µM.

Regarding `CC(C)=CCC/C(C)=C/CC1=C(O)C(=O)C=C(O)C1=O`, the IC50 in test [1] was greater than 10 µM.

On to `CCCCCCCCCCCCCCCC1=C(OC)C(=O)C=C(OC)C1=O`, for which, in test [1], the IC50 stood at 7.2 µM.

Consider `CCCCC1=C(O)C(=O)C=C(OC)C1=O`, for which the IC50 in test [1] is greater than 10 µM.

As to `CCCCCCCCCCCC1=C(O)C(=O)C=C(O)C1=O` [CHEBI:4778], the IC50 in test [1] and in test [2] was 0.21 µM in each case.

As to `CCCCC1=C(O)C(=O)C=C(O)C1=O`, the concentration for half-maximal inhibition (IC50) in test [1] is greater than 10 µM.

With `CCCCCCCCC1=C(O)C(=O)C=C(O)C1=O`, in test [1], the half-inhibitory concentration (IC50) came to 0.8 µM.

On to `CCCCCCCCCCCCCC1=C(O)C(=O)C=C(OC)C1=O` [Sorgoleone-364], for which the IC50 in test [1] was determined as 6.1 µM.

For the molecule `CCCCCCCCCCCCCCCCC1=C(O)C(=O)C=C(OC)C1=O`, in test [1], the 50% inhibitory concentration (IC50) is greater than 10 µM.

For `COC1=CC(=O)C(OC)=C(C/C=C(\C)CCC=C(C)C)C1=O`, the IC50 in test [1] was greater than 10 µM.

With `CCCCCCC1=C(OC)C(OC)=CC(=O)C1=O`, in test [1], the 50% inhibitory concentration (IC50) was greater than 10 µM.

With `CC(C)=CCC/C(C)=C/CC/C(C)=C/CC1=C(O)C(=O)C=C(O)C1=O`, in test [1], the IC50 was greater than 10 µM.

On to `CCCCCCCCCCCCCCC1=C(O)C(=O)C=C(OC)C1=O`, for which the IC50 in test [1] is greater than 10 µM.

For the molecule `CCCCCCCCCCCCCCCCC1=C(OC)C(=O)C=C(OC)C1=O`, the IC50 in test [1] is greater than 10 µM.
